Assay results as given in paper PMC7894572 (Chemmedchem, 2020).
Read-outs that look alike come from different tables or passages of the source.

How the values were obtained:
SARS‐CoV‐2 PL^pro = SARS‐CoV‐2 PL^pro (Severe acute respiratory syndrome coronavirus 2, UniProt P0DTD1); assay: biochemical; assay type: biochemical
in vitro = settings: African green monkey
SARS‐CoV PL^pro [1] = biological target: T1, SARS‐CoV PL^pro (Severe acute respiratory syndrome coronavirus, UniProt P0C6X7); assay: biochemical; assay type: biochemical
SARS‐CoV‐2 = assay: microbe, parasite or virus in culture; assay type: cell-based
SARS‐CoV PL^pro [2] = biological target: T1, SARS‐CoV PL^pro; settings: read-out: IC50 SARS‐CoV PL^pro; cited from earlier work

Compound	IC50 (SARS‐CoV‐2 PL^pro) [µM]	CC50 (in vitro) [µM]	IC50 (SARS‐CoV PL^pro [1]) [µM]	melting point [°C]	SI (selectivity index) (SARS‐CoV‐2)	EC50 (SARS‐CoV‐2; Severe acute respiratory syndrome coronavirus 2, Vero C1008, 24 h, read-out: EC50 inhibition of SARS‐CoV‐2 replication) [µM]	IC50 (SARS‐CoV PL^pro [2]) [µM]
C[C@@H](NC(=O)c1ccccc1Cl)c1cccc2ccccc12 [Compound 2 i, 2‐Chloro‐N‐[(1R)‐1‐naphth‐1‐ylethyl]benzamide]	15 ± 2	376 ± 1.36	6.5 ± 0.8	133	212	1.77 ± 1.6	–
CCc1ccccc1C(=O)NC(C)c1ccc2ccccc2c1 (centres unmarked) [Compound 19]	–	–	–	–	–	–	> 200
C[C@H](c1cccc2ccccc12)N1CCC(C(=O)NCc2cccc(F)c2)CC1 [Compound 20]	–	–	–	–	–	–	0.15
